Experimental data: patent US8318297B2, “Titanate nanowire, titanate nanowire scaffold, and processes of making same” (Board of Trustees of the University of Arkansas, priority 2007, dated 2012)

Assay: Controlled release of crystal violet from nanowire scaffolds on Ti foil
Assay type: physicochemical
Settings: for Release (%): crystal violet released from nanowire scaffolds on Ti, 10 mL fresh water
Method: A piece of dried titanium foil (2.2 cm^2) that was coated with nanofiber scaffolds was soaked in 100 mL of 0.001 mol/L crystal violet (C25H30ClN3, as a simulated drug) solution for 12 hours at room temperature. Then, the foil was collected, rinsed with deionized water, dried at room temperature overnight, and placed in 10 mL of fresh water for releasing the crystal violet molecules. The released crystal violet was measured on the Beckman DU-530 UV-Visible Spectrometer. A piece of dried titanium foil (2.2 cm^2) pre-coated with the nanowire scaffolds was soaked in 100 mL of 0.001 mol/L crystal violet (C25H30ClN3, as a simulated drug) solution for 12 hrs at room temperature. Then, the foil was collected, rinsed with deionized water, dried at room temperature overnight, and was then placed in 10 mL of fresh water for releasing the crystal violet molecules. The released crystal violet was measured on the Beckman DU-530 UV-Visible Spectrometer.

With `CN(C)c1ccc(C(=C2C=CC(=[N+](C)C)C=C2)c2ccc(N(C)C)cc2)cc1` [Crystal violet, crystal violet] the “Release (%)” value (time 0 hours) was 22.6%, the “Release (%)” value (time 2 hours) was 82.0% and the “Release (%)” value (time 2 hours, listed as model drug) was roughly 80%. The “Release (%)” value (time 4 hours) was 95.0%, the “Release (%)” value (time 6 hours) was 99.2% and the “Release (%)” value (time 12 hours) was 100%. For the same compound, the “time at which the model drug's concentration reached a maximum” value (release from nanowire scaffold on Ti foil) was 6 h.
